The subject of one data set is A2780 cells. Nature of the data set: Cell cycle analysis (DAPI, NC-3000), A2780 cells. Format: cell-based, human. The following applies: 48 h. As for the experimental part:
Cells were seeded in T25 flasks at 4 × 10^5 cells per flask and were incubated for 48 h or until they reached confluency. […] After the incubation time elapsed cells were suspended in PBS with a density closer to 1 × 10^6cells/mL. The cells were washed twice with 1× PBS before the addition of 250 μL of lysis buffer (solution 10) supplemented with 10 μg/mL DAPI (solution 12) was added to the samples and incubated for 5 min at 37°C. After incubation, 250 μL of stabilization buffer (solution 11) was added. 12.5 μL of samples were loaded on to an A‐8 slide and were analyzed using the NC‐3000 system.

Data set [1] can be described thus: MTT cytotoxicity assay, non-cancer PNT2 cells. The following applies: human, PNT2 normal prostate epithelial cells. (In general: Formazan colour is commonly taken as a measure of viable cells.)
Protocol: Human ovarian carcinoma cells, A2780 (sensitive to chemotherapeutics), A2780/CP70 (resistant to chemotherapeutics), and non‐cancerous cells including PNT2 (normal prostate epithelial cell line), and/or ARPE19 (human retinal pigment cell line) were maintained according to the ATCC and ECACC guidelines.
In vitro chemosensitivity assays were performed using the MTT assay as previously described.[32], [33] Briefly, at 70% confluency, cells were seeded in 96‐well plates at a density of 2000 cells/well. […] After the allocated contact time had elapsed, the media was removed and 0.5% (w/v) MTT solution diluted in complete media (200 μL) was added to each well. Following a 4 h incubation, the supernatants were removed, and the formazan crystals were dissolved in dimethylsulfoxide (150 μL). The absorbance was read at 540 nm on a Tecan Infinite 50 plate UV reader.

A word on the IC50: it is the concentration needed to halve the response being measured.

For `CCCCCc1cc(O)c(C/C=C(\C)CCC=C(C)C)c(O)c1` [CBG, cannabigerol], the “Cells in G0/G1 phase” value with A2780 cells (A2780, 10 μM) is listed as 79.1 ± 0.4%. The “Cells in G0/G1 phase” value in the data set with A2780 cells (A2780, 30 μM) stood at 80.2 ± 1.3%. Besides, in the data set on A2780 cells (A2780, 50 μM), the “Cells in G0/G1 phase” value is 67.6 ± 1.1% and the “Cells in subG1 phase” value was 8.7 ± 0.6%. Further, in data set [1], it took 37.2 ± 2.1 µM to reach half-maximal inhibition (IC50 at 24 h); the half-inhibitory concentration (IC50) at 48 h worked out at 22.9 ± 1.5 µM; the midpoint of inhibition, the IC50 at 72 h, lay at 19.9 ± 0.3 µM; the IC50 at 96 h turned out to be 18.3 ± 1.3 µM.

(Values after paper PMC10723784, “Investigation of the cytotoxicity induced by cannabinoids on human ovarian carcinoma cells” (Pharmacology Research & Perspectives, 2023).)
